Marks after values point to notes of the source that are not given here.
Tests used:
[1] = tested on: targets incubated with WT1 peptides (EL-4) and WT1 positive tumor cells (TRAMP-C, BLK-SV40); assay: CTL from mice immunized with WT1 peptides, chromium release assay; type: in vivo, B6 mice; settings: for generation of peptide specific CTL following immunization: spleen cells stimulated in vitro with peptide; for generation of peptide specific CTL following immunization / lysis of WT1 positive tumor cells by peptide specific CTL: chromium release; for lysis of WT1 positive tumor cells by peptide specific CTL: WT1 positive tumor cell lines (TRAMP-C, BLK-SV40)
Protocol: CTL were evaluated with a standard chromium release assay (Chen et al., Cancer Res. 54:1065-1070, 1994). 10^6 target cells were incubated at 37° C. with 150 μCi of sodium ^51Cr for 90 minutes, in the presence or absence of specific peptides. Cells were washed three times and resuspended in RPMI with 5% fetal bovine serum. For the assay, 10^4 51Cr-labeled target cells were incubated with different concentrations of effector cells in a final volume of 200 μl in U-bottomed 96-well plates. Supernatants were removed after 4 to 7 hours at 37° C., and the percentage specific lysis was determined by the formula: % specific lysis=100×(experimental release−spontaneous release)/(maximum release−spontaneous release).
P117-139, a peptide with motifs appropriate for binding to class I and class II MHC, was identified as described above using TSITES and BIMAS HLA peptide binding prediction analyses. Mice were immunized as described in Example 3. […] CTL were evaluated with a standard chromium release assay.

CD4 cells of splenocytes = assay: Intracellular interferon-gamma staining of CD4 cells (FACS) after immunization with WT-1 protein constructs; type: in vivo; settings: C57BL/6 mice
Protocol: Groups of four C57BL/6 mice were immunized subcutaneously with 20 μg WT-1 proteins: WT-1-F or WT-1 full length (FL), with Ra12, HIS or TAT fusions. Immunizations were performed at weeks 0, 3 and 9, and spleens were harvested at week 11. Splenocytes were then stimulated in vitro for 6 hours with medium alone, with a 15-mer peptide “p32” ([…], amino acids 125-139 of WT-1; found within the p117-139 peptide set forth in SEQ ID NO:2), with the DC2.4-WT-1/LAMP cell line, or with rRa12. CD4 cells were then stained for intracellular interferon-gamma and quantified by FACS analysis. A portion of these splenocytes were then stimulated in vitro for 8 days, after which CD4+ IFN+ cells were enumerated. After the 6 hour stimulation with p32, 0.33% of CD4-positive cells were positive for intracellular IFN-gamma staining in mice immunized with the truncated N-terminal construct rWT1-F-TAT. By contrast, only 0.10% of CD4-positive cells stained positive for intracellular IFN-gamma in mice immunized with rWT1-FL-TAT. […] By contrast, 0.24% of CD4-positive cells from mice immunized with the full-length WT1-TAT construct stained positive for intracellular IFN-gamma.

[2] = tested on: DC2.4 A2/Kb cells pulsed with peptides; assay: Identification of CTL epitope: chromium release with peptide pulsed DC2.4 A2/Kb cells; type: in vivo; settings: HLA-A2/Kb transgenic mice
[3] = Clinical chemistry and hematology analysis, WT1 dose titration study; type: in vivo; settings: mice immunized with WT1 protein
Description: Special emphasis was put on evaluation of potential hematopoietic toxicity.

[4] = tested on: WT1 specific CD8+ T-cell clone; assay: IFN-γ ELISPOT recognition by human WT1 specific CD8+ T-cell clone (whole gene priming); type: cell-based; settings: HLA-A2 restricted clone
[5] = tested on: WT1-specific CD8+ T cell clone and T cell line; assay: HLA-A2 peptide-MHC tetramer staining of WT1 specific T cells (flow cytometry); type: cell-based, human
[6] = tested on: mouse B6 class I antigens (D^b or K^b molecules on the surface of RMA-S cells); assay: Peptide binding to C57Bl/6 murine class I MHC using RMA-S cells (flow cytometry); type: cell-based; settings: 9-mer peptides within p117-139
Protocol: In brief, RMA-S cells were cultured for 7 hours at 26° C. in complete medium supplemented with 1% FCS. A total of 10^6 RMA-S cells were added into each well of a 24-well plate and incubated either alone or with the designated peptide (25 ug/ml) for 16 hours at 26° C. and additional 3 hours at 37° C. in complete medium. Cells were then washed three times and stained with fluorescein isothiocyanate-conjugated anti D^b or anti-K^b antibody (PharMingen, San Diego, Calif.). Labeled cells were washed twice, resuspended and fixed in 500 ul of PBS with 1% paraformaldehyde and analyzed for fluorescence intensity in a flow cytometer (Becton-Dickinson FACSCALIBUR™). The percentage of increase of D^b or K^b molecules on the surface of the RMA-S cells was measured by increased mean fluorescent intensity of cells incubated with peptide compared with that of cells incubated in medium alone.

human cells = assay: Cellular cytotoxicity of WT1-ubiquitin fusion expressed in human cells; type: cell-based; settings: compared with native WT1
Description: The human ubiquitin open reading frame (SEQ ID NO:384) was mutated such that the nucleotides encoding the last amino acid encode an alanine instead of a glycine. […] The G->A mutation prevents co-translational cleavage of the […] protein by the proteases that normally process poly-ubiquitin during translation. The DNA and predicted amino acid sequence for the resulting construct are set forth in SEQ ID NOs:385 and 410, respectively. […] The resulting protein is predicted to be targeted to the proteosome by virtue of the added ubiquitin molecule.

[7] = tested on: T cells of immunized B6 mice; assay: Proliferative T cell responses of immunized mice, thymidine incorporation assay; type: in vivo; settings: for stimulation index (SI), proliferative T cell response: mice immunized with WT1 peptides, thymidine incorporation (FIGS. 5A-5C)
Protocol: Peptides were dissolved in 1 ml sterile water for injection, and B6 mice were immunized 3 times at time intervals of three weeks. Adjuvants used were CFA/IFA, GM-CSF, and MONTANIDE®. […] In particular, lymphocytes were cultured in 96-well plates at 2×10^5 cells per well with 4×10^5 irradiated (3000 rads) syngeneic spleen cells and the designated peptide.

SCLESQPAI
generation of peptide specific CTL following immunization [1]: peptide specific CTL lines were generated

CMTWNQMNL
lysis of WT1 positive tumor cells by peptide specific CTL [1]: failed to lyse cell lines that expressed WT1 proteins
generation of peptide specific CTL following immunization ([1]; listed as p235-243): peptide specific CTL lines were generated

rWT1-FL-TAT: full-length WT1 as TAT fusion
CD4-positive cells positive for intracellular IFN-gamma staining (CD4 cells of splenocytes; 20 μg s.c. weeks 0, 3 and 9, 6 hour stimulation with p32): 0.10%
CD4+ cells with IFN-gamma staining (CD4 cells of splenocytes; 20 μg s.c., after the 8 day stimulation): 0.24%

ALLPAVPSL
generation of peptide specific CTL following immunization [1]: peptide specific CTL lines were generated
WT1 immunized animals with CTL responses to the peptide [2]: 4 of 5

WT1 protein: WT1 protein used for immunization in a multiple dose titration in mice
WT1-specific antibody response (MPL-SE as adjuvant, doses 25 μg, 100 μg to 1000 μg WT1 protein, female C57/B6 mice (FIG. 19)): strong WT1-specific antibody response
cellular T-cell responses (MPL-SE as adjuvant, doses 25 μg, 100 μg to 1000 μg WT1 protein, female C57/B6 mice (FIG. 20)): cellular T-cell responses
myeloid/erythroid ratio in sternum and femur marrow (mice immunized with WT1 protein): normal
systemic histopathological or toxicological effects of immunization (mice, multiple dose titration): No systemic histopathological or toxicological effects
blood cell counts and blood chemistry (BUN, creatinine, bilirubin, albumin, globulin) [3]: within the normal range

VLDFAPPGASAYGSL [peptide 10]
recognition by WT1 specific CD8+ T-cell clone (ELISPOT) [4]: recognized

LDFAPPGAS
staining of the WT1-specific CD8+ T cell clone by HLA-A2 tetramers incubated with an excess of the peptide [5]: did not stain the CD8+ T cell clone

VLDFAPPGAS
recognition by WT1 specific CD8+ T-cell clone (ELISPOT) [4]: specifically recognized

NAPYLPSCL
lysis of targets incubated with 9-mer peptide by CTL generated by immunization with p117-139 ([1]; EL-4 pulsed with peptide, E:T 25:1 (FIG. 13A)): lysed targets
peptide specific lysis after restimulation of the p117-139 specific CTL line with the 9-mer ([1]; FIGS. 13B and 13C): demonstrated peptide specific lysis
lysis of WT1 positive tumor cells by peptide specific CTL [1]: showed lysis of a WT1 positive tumor cell line
binding to H-2^b class I molecules [6]: bind to H-2^b class I molecules

WT1-Ubiquitin fusion: mutated (G->A) human ubiquitin fused upstream of a splice variant of human WT1
cellular cytotoxicity when expressed in human cells (human cells): decreased cellular cytotoxicity

VRRVSGVAPTLVRS [Peptide P299-313]
stimulation index (SI), proliferative T cell response [7]: 3.3

NLYQMTSQL
generation of peptide specific CTL following immunization [1]: not

RDLNALLPAVPSLGGGG [p6-22]
stimulation index (SI), proliferative T cell response [7]: 2.3

VLDFAPPGA
staining of the WT1-specific CD8+ T cell clone by HLA-A2 tetramers incubated with an excess of the peptide [5]: specifically stained the CD8+ T cell clone
recognition by WT1 specific CD8+ T-cell clone (ELISPOT) [4]: specifically recognized

WT1 p39-47: irrelevant HLA-A2 peptide used as tetramer control (DFAPPGASA; UniProt P19544 39-47, looked up, fragment)
staining of the WT1-specific CD8+ T cell clone by HLA-A2 tetramers incubated with an excess of the peptide [5]: did not stain the CD8+ T cell clone

p136-144: 9-mer class I MHC binding peptide; human or mouse form not stated at this place (SCLESQPAI; UniProt P19544 136-144, looked up, fragment)
generation of peptide specific CTL following immunization [1]: CTL were generated

QWAPVLDFAPPGASA [peptide 9]
recognition by WT1 specific CD8+ T-cell clone (ELISPOT) [4]: recognized

GATLKGVAAGSSSSVKWTE [p244-262]
stimulation indices (SI), proliferative T cell response to the immunizing peptides ([7]; Vaccine A immunized mice, bulk lines, peptide 25 ug/ml, 96 hr (FIG. 6A)): No proliferative response
